{"source": "ChEMBL document CHEMBL5143564", "about": "“PES derivative PESA is a potent tool to globally profile cellular targets of PES” (Bioorg Med Chem Lett, 2022)", "key": {"DOHH-2 [1]": {"test_system": "DOHH-2", "test": "Cytotoxicity against human DOHH-2 cells up to 20 uM measured after 24 hrs", "assay_type": "functional, cell-based"}, "Plastin-2 (Homo sapiens) [2]": {"target": "T1, Plastin-2 (Homo sapiens) (UniProt P13796)", "T1 sequence (whole entry)": "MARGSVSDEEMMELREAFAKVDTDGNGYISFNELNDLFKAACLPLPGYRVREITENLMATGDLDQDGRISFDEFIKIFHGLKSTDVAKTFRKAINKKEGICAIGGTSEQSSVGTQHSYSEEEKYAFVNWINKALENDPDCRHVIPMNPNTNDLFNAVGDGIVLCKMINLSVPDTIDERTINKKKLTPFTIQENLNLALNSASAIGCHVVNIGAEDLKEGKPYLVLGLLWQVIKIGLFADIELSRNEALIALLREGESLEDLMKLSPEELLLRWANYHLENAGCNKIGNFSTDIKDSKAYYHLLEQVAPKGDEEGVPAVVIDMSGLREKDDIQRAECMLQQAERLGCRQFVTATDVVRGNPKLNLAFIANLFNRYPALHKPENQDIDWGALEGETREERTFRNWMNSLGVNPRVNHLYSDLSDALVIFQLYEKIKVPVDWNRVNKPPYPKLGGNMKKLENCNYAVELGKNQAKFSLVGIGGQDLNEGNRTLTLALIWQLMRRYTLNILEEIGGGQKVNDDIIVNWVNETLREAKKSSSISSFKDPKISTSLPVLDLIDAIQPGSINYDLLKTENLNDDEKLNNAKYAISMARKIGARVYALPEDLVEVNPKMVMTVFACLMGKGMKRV", "test": "Binding affinity to plastin-2 in human DOHH-2 cells measured after 6 hrs by pull-down assay", "assay_type": "cell-based", "details": "DDE = dose-dependent effect"}, "[3]": {"target": "Glutathione S-transferase 3, mitochondrial (Homo sapiens) (UniProt O14880)", "sequence (O14880 whole entry)": "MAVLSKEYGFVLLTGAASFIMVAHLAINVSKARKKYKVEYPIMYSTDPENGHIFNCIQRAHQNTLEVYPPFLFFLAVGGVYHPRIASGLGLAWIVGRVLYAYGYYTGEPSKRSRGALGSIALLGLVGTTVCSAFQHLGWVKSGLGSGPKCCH", "test": "Binding affinity to MGST3 in human MDA-MB-453 cells measured after 6 hrs by pull-down assay", "assay_type": "cell-based", "details": "dose <= 20.0 µM, DDE = dose-dependent effect"}, "[4]": {"target": "Tubulin beta (Homo sapiens) (UniProt P68371+Q9H4B7+Q13509+P04350+Q3ZCM7+P07437+Q13885+Q9BVA1+Q9BUF5+A6NNZ2)", "test": "Binding affinity to beta-tubulin in human DOHH-2 cells by MS analysis", "assay_type": "cell-based"}, "[5]": {"target": "T2, Peroxiredoxin-2 (Homo sapiens) (UniProt P32119)", "T2 sequence (whole entry)": "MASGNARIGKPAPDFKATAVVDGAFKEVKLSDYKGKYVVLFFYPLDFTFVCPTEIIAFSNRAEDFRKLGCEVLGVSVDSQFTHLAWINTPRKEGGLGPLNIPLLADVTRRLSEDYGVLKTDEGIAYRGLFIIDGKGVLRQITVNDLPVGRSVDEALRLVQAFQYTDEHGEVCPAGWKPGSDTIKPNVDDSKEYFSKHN", "test": "Binding affinity to PRDX2 in human MDA-MB-453 cells measured after 6 hrs by pull-down assay", "assay_type": "cell-based", "details": "dose <= 20.0 µM, DDE = dose-dependent effect"}, "Plastin-2 (Homo sapiens) [6]": {"target": "T1, Plastin-2 (Homo sapiens)", "test": "Binding affinity to plastin-2 in human MDA-MB-453 cells measured after 6 hrs by pull-down assay", "assay_type": "cell-based", "details": "dose <= 20.0 µM, DDE = dose-dependent effect"}, "[7]": {"test": "GSH reactivity in pH 7.4 buffer assessed as GSH adduct formation by measuring molecular weight at 1 mM by Q-TOF LC/MS analysis", "assay_type": "physicochemical", "details": "pH 7.4, 1000 µM"}, "Plastin-2 (Homo sapiens) [8]": {"target": "T1, Plastin-2 (Homo sapiens)", "test": "Binding affinity to plastin-2 in human DOHH-2 cells by MS analysis", "assay_type": "cell-based"}, "[9]": {"target": "T3, Peroxiredoxin-6 (Homo sapiens) (UniProt P30041)", "T3 sequence (whole entry)": "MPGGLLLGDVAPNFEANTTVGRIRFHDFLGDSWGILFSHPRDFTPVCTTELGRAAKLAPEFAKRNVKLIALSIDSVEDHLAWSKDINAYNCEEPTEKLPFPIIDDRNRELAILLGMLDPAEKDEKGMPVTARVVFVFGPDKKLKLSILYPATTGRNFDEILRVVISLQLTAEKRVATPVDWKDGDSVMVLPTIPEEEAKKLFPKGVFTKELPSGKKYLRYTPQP", "test": "Binding affinity to PRDX6 in human DOHH-2 cells by MS analysis", "assay_type": "cell-based"}, "[10]": {"target": "Coronin-1A (Homo sapiens) (UniProt P31146)", "sequence (P31146 whole entry)": "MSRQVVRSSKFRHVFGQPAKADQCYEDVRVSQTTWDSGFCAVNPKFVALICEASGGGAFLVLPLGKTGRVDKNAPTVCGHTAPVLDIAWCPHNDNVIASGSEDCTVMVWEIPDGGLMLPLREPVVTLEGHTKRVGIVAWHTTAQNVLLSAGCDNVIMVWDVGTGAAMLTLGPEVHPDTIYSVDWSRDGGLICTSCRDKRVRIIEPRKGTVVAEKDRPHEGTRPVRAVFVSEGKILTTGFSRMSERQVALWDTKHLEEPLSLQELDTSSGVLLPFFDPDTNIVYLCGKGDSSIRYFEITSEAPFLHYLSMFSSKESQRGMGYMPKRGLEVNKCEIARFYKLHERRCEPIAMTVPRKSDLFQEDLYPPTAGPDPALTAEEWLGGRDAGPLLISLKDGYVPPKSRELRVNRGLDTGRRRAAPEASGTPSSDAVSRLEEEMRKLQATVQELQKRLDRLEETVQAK", "test": "Binding affinity to coronin-1A in human DOHH-2 cells measured after 6 hrs by pull-down assay", "assay_type": "cell-based", "details": "DDE = dose-dependent effect"}, "Jurkat": {"test_system": "Jurkat", "test": "Cytotoxicity against human Jurkat T cells measured after 72 hrs", "assay_type": "functional, cell-based"}, "[11]": {"target": "T4, Peroxiredoxin-5, mitochondrial (Homo sapiens) (UniProt P30044)", "T4 sequence (whole entry)": "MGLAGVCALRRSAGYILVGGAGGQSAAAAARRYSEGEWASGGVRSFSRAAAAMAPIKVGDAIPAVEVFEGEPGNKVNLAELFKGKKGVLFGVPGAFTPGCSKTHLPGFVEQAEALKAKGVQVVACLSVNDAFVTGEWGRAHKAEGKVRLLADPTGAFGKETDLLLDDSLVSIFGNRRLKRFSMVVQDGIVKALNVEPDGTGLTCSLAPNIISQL", "test": "Binding affinity to PRDX5 in human DOHH-2 cells measured after 6 hrs by pull-down assay", "assay_type": "cell-based", "details": "DDE = dose-dependent effect"}, "[12]": {"target": "Glutathione S-transferase 3, mitochondrial (Homo sapiens) (UniProt O14880)", "test": "Binding affinity to MGST3 in human DOHH-2 cells measured after 6 hrs by pull-down assay", "assay_type": "cell-based", "details": "DDE = dose-dependent effect"}, "[13]": {"target": "Elongation factor 2 (Homo sapiens) (UniProt P13639)", "test": "Binding affinity to elongation factor 2 in human DOHH-2 cells measured after 6 hrs by pull-down assay", "assay_type": "cell-based", "details": "DDE = dose-dependent effect"}, "Homo sapiens [14]": {"species": "Homo sapiens", "test": "Binding affinity to ADP-bound full-length human HSP70 assessed as cysteine adduct formation at SBDalpha domain by measuring half life at 1 mM by fluorescence spectra analysis"}, "DOHH-2 [15]": {"test_system": "DOHH-2", "test": "Induction of autophagy in human DOHH-2 cells assessed as change in transformation of LC3B1 to LC3B2 expression at 8 uM measured after 4 to 24 hrs by Western blot analysis", "assay_type": "functional, cell-based", "details": "time 4-24 hrs"}, "[16]": {"target": "T2, Peroxiredoxin-2 (Homo sapiens)", "test": "Binding affinity to PRDX2 in human DOHH-2 cells by MS analysis", "assay_type": "cell-based"}, "Homo sapiens [17]": {"species": "Homo sapiens", "test": "Binding affinity to ADP-bound full-length human HSP70 assessed as Cys603 adduct formation by size exclusion chromatography"}, "DOHH-2 [18]": {"test_system": "DOHH-2", "test": "Up regulation of HSP90alpha expression in human DOHH-2 cells at 0.5 to 8 uM measured after 24 hrs by Western blot analysis", "assay_type": "functional, cell-based", "details": "dose 0.5-8 µM"}}, "note": "Activity calls are given as the source filed them. No cut-off for these calls is given here.", "data": [{"smiles": "C#Cc1cccc(C#CS(N)(=O)=O)c1", "values": [{"measurement": "Activity", "setting": "DOHH-2 [1]", "value": "Active"}, {"measurement": "Activity", "setting": "Plastin-2 (Homo sapiens) [2]", "value": "Dde"}, {"measurement": "Activity", "setting": "[3]", "value": "Dde"}, {"measurement": "Activity", "setting": "[4]", "value": "Active"}, {"measurement": "Activity", "setting": "[5]", "value": "Dde"}, {"measurement": "Activity", "setting": "Plastin-2 (Homo sapiens) [6]", "value": "Dde"}, {"measurement": "Activity", "setting": "[7]", "value": 513, "unit": "Da"}, {"measurement": "Activity", "setting": "Plastin-2 (Homo sapiens) [8]", "value": "Active"}, {"measurement": "Activity", "setting": "[9]", "value": "Active"}, {"measurement": "Activity", "setting": "[10]", "value": "Dde"}, {"measurement": "Activity", "setting": "Jurkat", "value": "Active"}, {"measurement": "Activity", "setting": "[11]", "value": "Dde"}, {"measurement": "Activity", "setting": "[12]", "value": "Dde"}, {"measurement": "Activity", "setting": "[13]", "value": "Dde"}, {"measurement": "T1/2", "setting": "Homo sapiens [14]", "value": 1.53, "unit": "h"}, {"measurement": "Activity", "setting": "DOHH-2 [15]", "value": "Active"}, {"measurement": "Activity", "setting": "[16]", "value": "Active"}, {"measurement": "Activity", "setting": "Homo sapiens [17]", "value": "Active"}, {"measurement": "Activity", "setting": "DOHH-2 [18]", "value": "Active"}]}]}
